Reference: EP4063856A1, “METHODS AND COMPOSITIONS FOR IN VITRO SCREENING OF PROTEASE INHIBITORS” (Universiteit Antwerpen, priority 2021, dated 2022)
Structures can show the parent of a compound that is named as a salt.

How the values were obtained:
[1] = biological target: T1, recombinant TMPRSS2 (rTMPRSS2) (Homo sapiens, UniProt O15393); test: Inhibitor screening assay with medium containing recombinant TMPRSS2 (trypsin-like activity, Boc-QAR-AMC substrate, fluorescence); type: biochemical; details: 15 minutes of incubation at 37°C, 30 µM Boc-QAR-AMC, read-out: Inhibitory effect (%): percentage of inhibited trypsin-like activity
T1 construct: The expression vector, encoding the serine protease domain of TMPRSS2, a His-tag and a secretion signal; His-tag; secretion signal; made in house; host or cells: HEK293T cells, transient transfection; unpurified cell medium used
T1 sequence (O15393 256-492 limits assumed): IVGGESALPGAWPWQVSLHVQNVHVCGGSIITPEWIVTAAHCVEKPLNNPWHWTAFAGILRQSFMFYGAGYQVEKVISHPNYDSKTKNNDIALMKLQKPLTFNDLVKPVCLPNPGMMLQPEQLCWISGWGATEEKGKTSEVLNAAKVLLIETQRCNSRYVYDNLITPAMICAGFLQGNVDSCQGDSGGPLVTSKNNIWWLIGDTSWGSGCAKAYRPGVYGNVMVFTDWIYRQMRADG
Description: Cell medium containing the TMPRSS2 serine protease domain was collected 4 days post-transfection and trypsin-like activity was determined as described above.
On the one hand, intact prostasomes and on the other hand, medium containing recombinant TMPRSS2 (rTMPRSS2) were used. The prostasome suspension and rTMPRSS2 were diluted so that less than 10% substrate conversion was observed after 30 minutes of measurement and trypsin-like activities of both preparations were similar (approximately 0.025 U/L). The inhibitors were added to the samples in concentrations of 10 µM, 1 µM and 100 nM, followed by 15 minutes of incubation at 37°C. The substrate, Boc-QAR-AMC (Bachem), was added in a final concentration of 30 µM. This concentration was determined to be the Michaelis-Menten constant for Boc-QAR-AMC and recombinant TMPRSS2. Fluorescence was measured kinetically at 37°C for 20 minutes on a Tecan F200 multi-plate reader at an excitation and emission wavelength of 380 nm and 465 nm, respectively. The inhibitory effect was calculated by dividing the trypsin-like activity without inhibitor by the activity with inhibitor and was expressed as percentage inhibition.

[2] = biological target: T2, TMPRSS2 in prostasomes (Homo sapiens, UniProt O15393); test: Inhibitor screening assay with intact prostasomes (trypsin-like activity, Boc-QAR-AMC substrate, fluorescence); type: biochemical; details: 15 minutes of incubation at 37°C, 30 µM Boc-QAR-AMC, read-out: Inhibitory effect (%): percentage of inhibited trypsin-like activity
T2 construct: Prostasomes or extracellular vesicles were isolated from semen samples using ultracentrifugation and size-exclusion chromatography; from tissue; host or cells: prostasomes (extracellular vesicles) from pooled semen samples
T2 sequence (O15393 256-492 limits assumed): as above
T2 sequence (O15393 1-255 limits assumed): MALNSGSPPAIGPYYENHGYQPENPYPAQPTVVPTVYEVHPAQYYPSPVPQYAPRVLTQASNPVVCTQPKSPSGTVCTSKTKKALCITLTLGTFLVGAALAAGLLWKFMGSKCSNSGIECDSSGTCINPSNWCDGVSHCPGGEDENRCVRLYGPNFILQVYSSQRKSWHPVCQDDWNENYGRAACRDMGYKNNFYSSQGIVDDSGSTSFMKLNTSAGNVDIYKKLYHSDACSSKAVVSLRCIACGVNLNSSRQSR
Description: Trypsin-like activity in the intact prostasomes was determined using 100 µM Boc-QAR-AMC (Bachem) in 50 mM Tris 120 mM NaCl pH 8,0. Fluorescence was measured kinetically at 37°C for 20 minutes on a Tecan F200 multi-plate reader at an excitation and emission wavelength of 380 nm and 465 nm, respectively.
On the one hand, intact prostasomes and on the other hand, medium containing recombinant TMPRSS2 (rTMPRSS2) were used. The prostasome suspension and rTMPRSS2 were diluted so that less than 10% substrate conversion was observed after 30 minutes of measurement and trypsin-like activities of both preparations were similar (approximately 0.025 U/L). The inhibitors were added to the samples in concentrations of 10 µM, 1 µM and 100 nM, followed by 15 minutes of incubation at 37°C. The substrate, Boc-QAR-AMC (Bachem), was added in a final concentration of 30 µM. […] Fluorescence was measured kinetically at 37°C for 20 minutes on a Tecan F200 multi-plate reader at an excitation and emission wavelength of 380 nm and 465 nm, respectively. The inhibitory effect was calculated by dividing the trypsin-like activity without inhibitor by the activity with inhibitor and was expressed as percentage inhibition.

Structure (SMILES): CN(C)C(=O)COC(=O)Cc1ccc(OC(=O)c2ccc(NC(=N)N)cc2)cc1 [Camostat, camostat mesylate]
- inhibition at 0.1 µM ([1]; 100 nM inhibitor): 73%
- inhibition at 1 µM ([1]; 1 µM inhibitor): 88%
- inhibition at 10 µM ([1]; 10 µM inhibitor): 100%
- inhibition at 0.1 µM ([2]; 100 nM inhibitor): 99%
- inhibition at 1 µM ([2]; 1 µM inhibitor): 100%
- inhibition at 10 µM ([2]; 10 µM inhibitor): 100%
